Test results from patent publication US20100004301A1, “Benzoxazoles Useful in the Treatment of Inflammation” (priority 2006, published 2010).

Each compound was assayed against T1, mPGES-1 (Homo sapiens, UniProt O14684) (assay: mPGES-1 enzyme assay (conversion of PGH2 to PGE2, HPLC analysis)). Conditions: mPGES-1 expressed in E. coli, membrane fraction; 25 min preincubation, 60 s PGH2 reaction, room temperature.
T1 construct: made in house; host or cells: E. coli
T1 sequence (O14684 1-152): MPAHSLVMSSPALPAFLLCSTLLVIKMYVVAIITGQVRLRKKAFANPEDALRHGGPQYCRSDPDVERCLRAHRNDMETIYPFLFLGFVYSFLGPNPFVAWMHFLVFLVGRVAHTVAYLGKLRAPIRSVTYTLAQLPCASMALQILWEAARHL
Assay type: biochemical
Protocol: In the assay mPGES-1 catalyzes the reaction where the substrate PGH2 is converted to PGE2. mPGES-1 is expressed in E. coli and the membrane fraction is dissolved in 20 mM NaPi-buffer pH 8.0 and stored at −80° C. In the assay mPGES-1 is dissolved in 0.1M KPi-buffer pH 7.35 with 2.5 mM glutathione. The stop solution consists of H2O/MeCN (7/3), containing FeCl2 (25 mM) and HCl (0.15 M). The assay is performed at room temperature in 96-well plates. Analysis of the amount of PGE2 is performed with reversed phase HPLC (Waters 2795 equipped with a 3.9×150 mm C18 column). The mobile phase consists of H2O/MeCN (7/3), containing TFA (0.056%), and absorbance is measured at 195 nm with a Waters 2487 UV-detector.
The following is added chronologically to each well: • 1. 100 μL mPGES-1 in KPi-buffer with glutathione. Total protein concentration: 0.02 mg/mL. • 2. 1 μL inhibitor in DMSO. Incubation of the plate at room temperature for 25 minutes. • 3. 4 μL of a 0.25 mM PGH2 solution. Incubation of the plate at room temperature for 60 seconds. • 4. 100 μL stop solution. • 180 μL per sample is analyzed with HPLC.

| IC50 | Compound |
| --- | --- |
| 270 nM | CC(C)(C)c1ccc2oc(-c3cc(COc4cccc(Cl)c4)cc(NC(=O)c4ccccc4C(F)(F)F)c3)nc2c1 [Example 7, N-[3-(5-tert-Butylbenzoxazol-2-yl)-5-(3-chlorophenoxymethyl)phenyl]-2-trifluoromethylbenzamide] |
| 600 nM | CC(C)Oc1ccc(-c2ccc3oc(-c4cc(NS(=O)(=O)c5cc(Cl)ccc5Cl)ccc4Cl)nc3c2)cc1 [Example 4, 2,5-Dichloro-N-{4-chloro-3-[5-(4-isopropoxyphenyl)benzoxazol-2-yl]phenyl}benzenesulfonamide] |
| 130 nM | Cc1cc(C)cc(-c2cc(-c3nc4cc(C)ccc4o3)cc(NC(=O)c3ccccc3C(F)(F)F)c2N)c1 [Example 5, N-[2-Amino-3′,5′-dimethyl-5-(5-methylbenzoxazol-2-yl)biphenyl-3-yl]-2-trifluoromethylbenzamide] |
